Measured values reported in US5061794A, “Cephalosporin derivatives, and antibacterial agents” (priority 1986, dated 1991).
Like-named read-outs stand apart in the source and are kept apart here.

Key:
Ps. aeruginosa IF03445 = assay: in vitro antibacterial activity, agar plate dilution method (MIC); type: cell-based, Pseudomonas aeruginosa; details: Pseudomonas aeruginosa, 16 h; Ps. aeruginosa IF03445; 10^6 CFU/ml; read-out: Minimum Inhibitory Concentration (MIC)
Summary of the method: (§1)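 Inoculum 10^6 CFU/ml; medium Mueller Hinton agar with graded antibiotic; 37° C./16 h; endpoint MIC (μg/ml).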

Ps. aeruginosa AKR17 = assay: as above; type: cell-based, Pseudomonas aeruginosa; details: Pseudomonas aeruginosa, 16 h; Ps. aeruginosa AKR17; 10^6 CFU/ml; read-out: Minimum Inhibitory Concentration (MIC)
Summary of the method: as §1

Ps. aeruginosa AK 109 = assay: as above; type: cell-based, Pseudomonas aeruginosa; details: Pseudomonas aeruginosa, AK109, 16 h, Ps. aeruginosa AK 109; 10^6 CFU/ml; read-out: Minimum Inhibitory Concentration (MIC)
Summary of the method: as §1

A. calcoaceticus No. 4 = assay: as above; type: cell-based, Acinetobacter calcoaceticus; details: Acinetobacter calcoaceticus, NO.4, 16 h, 10^6 CFU/ml
Summary of the method: as §1

Ps. cepacia 23 = assay: as above; type: cell-based, Pseudomonas cepacia; details: Burkholderia cepacia, 23, 16 h, read-out: Minimum Inhibitory Concentration (MIC)
Summary of the method: as §1

K. pneumoniae No. 42 = assay: as above; type: cell-based; details: Klebsiella pneumoniae, NO.42, 16 h, read-out: Minimum Inhibitory Concentration (MIC), *K. pneumoniae No. 42, lactamase-producing strain; 10^6 CFU/ml
Summary of the method: as §1

S. marcescens IAM 1184 = assay: as above; type: cell-based; details: Serratia marcescens, IAM1184, 16 h, read-out: Minimum Inhibitory Concentration (MIC)
Summary of the method: as §1

E. coli GN5482 = assay: as above; type: cell-based; details: Escherichia coli, GN5482, 16 h
Summary of the method: as §1

K. oxytoca GN10650 = assay: as above; type: cell-based; details: Klebsiella oxytoca, 10^6 CFU/ml
Summary of the method: as §1

K. pneumoniae PCI-602 = assay: as above; type: cell-based; details: Klebsiella pneumoniae, PCI602, 16 h, 10^6 CFU/ml
Summary of the method: as §1

E. coli NIHJ JC2 = assay: as above; type: cell-based; details: Escherichia coli, NIHJJC2, 16 h, read-out: Minimum Inhibitory Concentration (MIC), E. coli NIHJ JC2, 10^6 CFU/ml, 37° C.
Summary of the method: as §1

P. vulgaris HX-19 = assay: as above; type: cell-based; details: Proteus vulgaris, HX19, 16 h, P. vulgaris HX-19; 10^6 CFU/ml; read-out: Minimum Inhibitory Concentration (MIC)
Summary of the method: as §1

P. vulgaris No. 33 = assay: as above; type: cell-based; details: Proteus vulgaris, NO.33, 16 h, read-out: Minimum Inhibitory Concentration (MIC), *P. vulgaris No. 33, lactamase-producing strain; 10^6 CFU/ml
Summary of the method: as §1

E. cloacae 963 = assay: as above; type: cell-based; details: Enterobacter cloacae, 963, 16 h, read-out: Minimum Inhibitory Concentration (MIC), E. cloacae 963; 10^6 CFU/ml
Summary of the method: as §1

M. morganii GN5407 = assay: as above; type: cell-based; details: Morganella morganii, GN5407, 16 h, read-out: Minimum Inhibitory Concentration (MIC), *M. morganii GN5407, lactamase-producing strain; 10^6 CFU/ml
Summary of the method: as §1

S. aureus 209P NIHJ-JC1 = assay: as above; type: cell-based; details: Staphylococcus aureus, 16 h
Summary of the method: as §1

S. marcescens No. 16-2 = assay: as above; type: cell-based; details: Serratia marcescens, NO.162, 16 h, 10^6 CFU/ml
Summary of the method: as §1

E. cloacae Nek 39 = assay: as above; type: cell-based; details: Enterobacter cloacae, NEK39, 16 h, 10^6 CFU/ml
Summary of the method: as §1

E. coli CSH(RE45) = assay: microbe, parasite or virus in culture; type: cell-based; details: Escherichia coli, 16 h, read-out: Minimum Inhibitory Concentration (MIC), *E. coli CSH(RE45), lactamase-producing strain; 10^6 CFU/ml
Summary of the method: as §1

E. coli CSH2 (RK1) = assay: microbe, parasite or virus in culture; type: cell-based; details: Escherichia coli, 16 h, read-out: Minimum Inhibitory Concentration (MIC), *E. coli CSH2 (RK1), lactamase-producing strain; 10^6 CFU/ml
Summary of the method: as §1

[1] = read-out: Minimum Inhibitory Concentration (MIC), *E. coli GN5482, lactamase-producing strain, 10^6 CFU/ml
[2] = GN10650, 16 h, read-out: Minimum Inhibitory Concentration (MIC), *K. oxytoca GN10650, lactamase-producing strain
[3] = K. pneumoniae PCI-602, read-out: Minimum Inhibitory Concentration (MIC)
[4] = read-out: Minimum Inhibitory Concentration (MIC)
[5] = read-out: Minimum Inhibitory Concentration (MIC), *E. cloacae Nek 39, lactamase-producing strain
[6] = A. calcoaceticus No. 4, read-out: Minimum Inhibitory Concentration (MIC)
[7] = *S. marcescens No. 16-2, lactamase-producing strain, read-out: Minimum Inhibitory Concentration (MIC)

With `CO/N=C(\C(=O)N[C@@H]1C(=O)N2C(C(=O)O)=C(CSc3ncc(-c4ccccc4)o3)CS[C@H]12)c1csc(N)n1` [compound 21, sodium 7β-[2-(2-aminothiazol-4-yl)-2methoxyiminoacetamido]-3-(5-phenyloxazol-2-yl)thiomethyl-3-cephem-4-carboxylate, reference compound] the MIC (Ps. aeruginosa IF03445) was 50 µg/mL, the MIC (Ps. aeruginosa AKR17) was > 100 µg/mL and the MIC (Ps. aeruginosa AK 109) was 50 µg/mL. For the same molecule, the MIC (A. calcoaceticus No. 4; read-out: Minimum Inhibitory Concentration (MIC), A. calcoaceticus No. 4) was 12.5 µg/mL, the MIC (Ps. cepacia 23) was 0.78 µg/mL and the MIC (K. pneumoniae No. 42) was 3.12 µg/mL. It also gave an MIC (S. marcescens IAM 1184) of 0.78 µg/mL, an MIC (E. coli GN5482; [1]) of 0.78 µg/mL and an MIC (K. oxytoca GN10650; [2]) of 12.5 µg/mL. It also gave an MIC (K. pneumoniae PCI-602; [3]) of 0.0125 µg/mL, an MIC (E. coli NIHJ JC2) of 1.56 µg/mL and an MIC (P. vulgaris HX-19) of 0.0125 µg/mL. It also gave an MIC (P. vulgaris No. 33) of 0.78 µg/mL, an MIC (E. cloacae 963) of 3.12 µg/mL and an MIC (M. morganii GN5407) of 1.56 µg/mL. It also gave an MIC (S. aureus 209P NIHJ-JC1; [4]) of 0.39 µg/mL, an MIC (S. marcescens No. 16-2; read-out: Minimum Inhibitory Concentration (MIC), *S. marcescens No. 16-2, lactamase-producing strain) of 6.25 µg/mL and an MIC (E. cloacae Nek 39; [5]) of 6.25 µg/mL. It also gave an MIC (E. coli CSH(RE45)) of 1.56 µg/mL and an MIC (E. coli CSH2 (RK1)) of 0.78 µg/mL.

In the case of `CC(C)(O/N=C(\C(=O)N[C@@H]1C(=O)N2C(C(=O)O)=C(CSc3ncc(-c4ccccc4)o3)CS[C@H]12)c1csc(N)n1)C(=O)O` [compound 22, disodium 7β-[2-(2-aminothiazol-4-yl)-2-(1-carboxylate-1-methylethoxyimino)acetamido]-3(5-phenyloxazol-2-yl)thiomethyl-3-cephem-4-carboxylate, reference compound], the MIC (Ps. aeruginosa IF03445) was 50 µg/mL, the MIC (Ps. aeruginosa AKR17) was > 100 µg/mL and the MIC (Ps. aeruginosa AK 109) was 50 µg/mL. For the same molecule, the MIC (A. calcoaceticus No. 4; [6]) was > 100 µg/mL, the MIC (Ps. cepacia 23) was 12.5 µg/mL and the MIC (K. pneumoniae No. 42) was 12.5 µg/mL. For the same molecule, the MIC (S. marcescens IAM 1184) was 3.12 µg/mL, the MIC (E. coli GN5482; [4]) was 3.12 µg/mL and the MIC (K. oxytoca GN10650; [2]) was 6.25 µg/mL. For the same molecule, the MIC (K. pneumoniae PCI-602; read-out: Minimum Inhibitory Concentration (MIC), K. pneumoniae PCI-602) was 0.1 µg/mL, the MIC (E. coli NIHJ JC2) was 12.5 µg/mL and the MIC (P. vulgaris HX-19) was < 0.006 µg/mL. For the same molecule, the MIC (P. vulgaris No. 33) was 0.78 µg/mL, the MIC (E. cloacae 963) was 12.5 µg/mL and the MIC (M. morganii GN5407) was 6.25 µg/mL. The MIC (S. aureus 209P NIHJ-JC1; read-out: Minimum Inhibitory Concentration (MIC), S. aureus 209P NIHJ-JC1, 10^6 CFU/ml, 37° C., 16 hours) was 6.25 µg/mL, the MIC (S. marcescens No. 16-2; [7]) was 25 µg/mL and the MIC (E. cloacae Nek 39; *E. cloacae Nek 39, lactamase-producing strain, read-out: Minimum Inhibitory Concentration (MIC)) was 25 µg/mL. For the same molecule, the MIC (E. coli CSH(RE45)) was 3.12 µg/mL and the MIC (E. coli CSH2 (RK1)) was 3.12 µg/mL.

`CO/N=C(\C(=O)N[C@@H]1C(=O)N2C(C(=O)O)=C(CSc3ncc(-c4ccc(O)cc4)o3)CS[C@H]12)c1csc(N)n1` [compound 23, sodium 7β-[2-(2-aminothiazol-4-yl)-2-methoxyiminoacetamido]-3-[5-(4-hydroxyphenyl)-oxazol-2-yl]thiomethyl-3-cephem-4-carboxylate, reference compound] was tested, and the MIC (Ps. aeruginosa IF03445) was 50 µg/mL, the MIC (Ps. aeruginosa AKR17) was > 100 µg/mL and the MIC (Ps. aeruginosa AK 109) was 50 µg/mL. For the same molecule, the MIC (A. calcoaceticus No. 4; [6]) was 50 µg/mL, the MIC (Ps. cepacia 23) was 3.12 µg/mL and the MIC (K. pneumoniae No. 42) was 3.12 µg/mL. It also gave an MIC (S. marcescens IAM 1184) of 0.78 µg/mL, an MIC (E. coli GN5482; [1]) of 0.78 µg/mL and an MIC (K. oxytoca GN10650; 16 h, *K. oxytoca GN10650, lactamase-producing strain, read-out: Minimum Inhibitory Concentration (MIC)) of 25 µg/mL. The MIC (K. pneumoniae PCI-602; [3]) was 0.0125 µg/mL, the MIC (E. coli NIHJ JC2) was 1.56 µg/mL and the MIC (P. vulgaris HX-19) was < 0.006 µg/mL. For the same molecule, the MIC (P. vulgaris No. 33) was 0.78 µg/mL, the MIC (E. cloacae 963) was 3.12 µg/mL and the MIC (M. morganii GN5407) was 1.56 µg/mL. For the same molecule, the MIC (S. aureus 209P NIHJ-JC1; S. aureus 209P NIHJ-JC1, 10^6 CFU/ml, 37° C., 16 hours, read-out: Minimum Inhibitory Concentration (MIC)) was 0.2 µg/mL, the MIC (S. marcescens No. 16-2; [7]) was 25 µg/mL and the MIC (E. cloacae Nek 39; [5]) was 6.25 µg/mL. For the same molecule, the MIC (E. coli CSH(RE45)) was 0.78 µg/mL and the MIC (E. coli CSH2 (RK1)) was 0.78 µg/mL.
